Patent US8030498B2, “Benzoylpyrazole compounds and herbicides containing them” (Ishihara Sangyo Kaisha, Ltd., priority 2005, dated 2011)

Columns and labels:
[1] = test system: crabgrass (Digitaria sanguinalis L.); experiment: Test Example 1: foliar treatment, growth inhibition rate, crabgrass; assay type: in vivo; conditions: visually observed 17th to 23rd day after application
Method in brief: (§1)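 Visual scoring of growth inhibition, 0% (untreated) to 100% (complete kill), on days 17–23 following post-emergence spray of formulated compound in water (500 L/ha, 0.1 vol % spreader); plants treated at set leaf stages, e.g. corn 2.0–3.5, wheat 1.7–3.4.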

corn (Zea mays L.) = experiment: Test Example 1: foliar treatment, growth inhibition rate, corn; assay type: in vivo; conditions: visually observed 17th to 23rd day after application
Method in brief: (§2)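 Potted upland soil; compounds as wettable powders or emulsifiable concentrates diluted in water at 500 L/ha plus 0.1 vol % spreader, foliar-sprayed at defined leaf stages (rice 1.0–2.5, wheat 1.7–3.4, corn 2.0–3.5, greenfoxtail 1.0–3.0). Growth inhibition (0–100%) scored visually 17–23 days after application.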

barnyardgrass = experiment: Test Example 2: soil application on the day after sowing, growth inhibition rate, barnyardgrass; assay type: in vivo, Echinochloa crus-galli L.; conditions: 250 g/ha active ingredient, observed on 19th to 24th day
Method in brief: (§3)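 Upland soil pots sown with crop and weed seeds; next day wettable powder or emulsifiable concentrate at prescribed active-ingredient amounts, diluted to 500 L/ha water, sprayed onto soil. Growth inhibition scored visually 19–24 days later, 0 (as untreated) to 100% (complete kill).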

wheat = experiment: Test Example 2: soil application on the day after sowing, growth inhibition rate, wheat; assay type: in vivo, Triticum spp.; conditions: 250 g/ha active ingredient, observed on 19th to 24th day
Method in brief: as §3

[2] = test system: barnyardgrass (Echinochloa crus-galli L.); experiment: Test Example 1: foliar treatment, growth inhibition rate, barnyardgrass; assay type: in vivo; conditions: visually observed 17th to 23rd day after application
Method in brief: (§4)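 Seeds were sown in upland field soil in pots. At the target leaf stage (corn 2.0–3.5; greenfoxtail 1.0–3.0; rice 1.0–2.5; wheat 1.7–3.4), the formulated compound, diluted at a water volume of 500 L/ha with 0.1 vol % spreader, was applied by small sprayer. Plants were rated by eye on days 17–23.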

redroot pigweed = experiment: Test Example 2: soil application on the day after sowing, growth inhibition rate, redroot pigweed; assay type: in vivo, Amaranthus retroflexus L.; conditions: 250 g/ha active ingredient, observed on 19th to 24th day
Method in brief: as §3

[3] = test system: greenfoxtail (Setaria viridis L.); experiment: Test Example 1: foliar treatment, growth inhibition rate, greenfoxtail; assay type: in vivo; conditions: visually observed 17th to 23rd day after application
Method in brief: as §2

[4] = test system: redroot pigweed (Amaranthus retroflexus L.); experiment: Test Example 1: foliar treatment, growth inhibition rate, redroot pigweed; assay type: in vivo; conditions: visually observed 17th to 23rd day after application
Method in brief: as §1

crabgrass = experiment: Test Example 2: soil application on the day after sowing, growth inhibition rate, crabgrass; assay type: in vivo, Digitaria sanguinalis L.; conditions: 250 g/ha active ingredient, observed on 19th to 24th day
Method in brief: as §3

soybean = experiment: Test Example 2: soil application on the day after sowing, growth inhibition rate, soybean; assay type: in vivo, Glycine max Merr.; conditions: 250 g/ha active ingredient, observed on 19th to 24th day
Method in brief: as §3

rice = experiment: Test Example 2: soil application on the day after sowing, growth inhibition rate, rice; assay type: in vivo, Oryza sativa L.; conditions: 250 g/ha active ingredient, observed on 19th to 24th day
Method in brief: as §3

rice (Oryza sativa L.) = experiment: Test Example 1: foliar treatment, growth inhibition rate, rice; assay type: in vivo; conditions: visually observed 17th to 23rd day after application
Method in brief: as §2

prickly sida = experiment: Test Example 2: soil application on the day after sowing, growth inhibition rate, prickly sida; assay type: in vivo, Sida spinosa L.; conditions: 250 g/ha active ingredient, observed on 19th to 24th day
Method in brief: as §3

greenfoxtail = experiment: Test Example 2: soil application on the day after sowing, growth inhibition rate, greenfoxtail; assay type: in vivo, Setaria viridis L.; conditions: 250 g/ha active ingredient, observed on 19th to 24th day
Method in brief: as §3

velvetleaf = experiment: Test Example 2: soil application on the day after sowing, growth inhibition rate, velvetleaf; assay type: in vivo, Abutilon theophrasti MEDIC.; conditions: 250 g/ha active ingredient, observed on 19th to 24th day
Method in brief: as §3

corn = experiment: Test Example 2: soil application on the day after sowing, growth inhibition rate, corn; assay type: in vivo, Zea mays L.; conditions: 250 g/ha active ingredient, observed on 19th to 24th day
Method in brief: as §3

[5] = test system: soybean (Glycine max Merr.); experiment: Test Example 1: foliar treatment, growth inhibition rate, soybean; assay type: in vivo; conditions: visually observed 17th to 23rd day after application
Method in brief: as §1

[6] = test system: velvetleaf (Abutilon theophrasti MEDIC.); experiment: Test Example 1: foliar treatment, growth inhibition rate, velvetleaf; assay type: in vivo; conditions: visually observed 17th to 23rd day after application
Method in brief: as §4

wheat (Triticum spp.) = experiment: Test Example 1: foliar treatment, growth inhibition rate, wheat; assay type: in vivo; conditions: visually observed 17th to 23rd day after application
Method in brief: as §2

[7] = test system: prickly sida (Sida spinosa L.); experiment: Test Example 1: foliar treatment, growth inhibition rate, prickly sida; assay type: in vivo; conditions: visually observed 17th to 23rd day after application
Method in brief: as §1

Structure (SMILES)	Growth inhibition rate (%) Crabgrass ([1]; 31 g/ha active ingredient)	Growth inhibition rate (%) Corn (corn (Zea mays L.); 31 g/ha active ingredient)	Growth inhibition rate (%) Barnyardgrass (barnyardgrass)	Growth inhibition rate (%) Wheat (wheat)	Growth inhibition rate (%) Barnyardgrass ([2]; 31 g/ha active ingredient)	Growth inhibition rate (%) redroot pigweed (redroot pigweed)	Growth inhibition rate (%) Greenfoxtail ([3]; 31 g/ha active ingredient)	Growth inhibition rate (%) redroot pigweed ([4]; 31 g/ha active ingredient)	Growth inhibition rate (%) Crabgrass (crabgrass)	Growth inhibition rate (%) Soybean (soybean)	Growth inhibition rate (%) Rice (rice)	Growth inhibition rate (%) Rice (rice (Oryza sativa L.); 31 g/ha active ingredient)	Growth inhibition rate (%) Prickly sida (prickly sida)	Growth inhibition rate (%) Greenfoxtail (greenfoxtail)	Growth inhibition rate (%) Velvetleaf (velvetleaf)	Growth inhibition rate (%) Corn (corn)	Growth inhibition rate (%) Soybean ([5]; 31 g/ha active ingredient)	Growth inhibition rate (%) Velvetleaf ([6]; 31 g/ha active ingredient)	Growth inhibition rate (%) Wheat (wheat (Triticum spp.); 31 g/ha active ingredient)	Growth inhibition rate (%) Prickly sida ([7]; 31 g/ha active ingredient)	further results
CCSC(=O)Oc1c(C(=O)c2ccc(S(C)(=O)=O)c(OCCOC)c2Cl)cnn1C [compound 216]	100%	10%	95%	0%	100%	100%	98%	100%	100%	0%	80%	70%	80%	100%	90%	0%	95%	98%	0%	50%	–
CCSC(=O)Oc1c(C(=O)c2ccc(S(C)(=O)=O)c(OCC3CCCO3)c2C)cnn1C (stereo not drawn) [compound 211]	70%	20%	60%	0%	70%	100%	70%	90%	98%	0%	50%	50%	70%	60%	40%	0%	98%	90%	0%	20%	–
CCSC(=O)Oc1c(C(=O)c2ccc(S(C)(=O)=O)c(OCCSC)c2C)cnn1C [compound 81]	0%	10%	0%	0%	30%	0%	0%	10%	0%	0%	0%	10%	0%	10%	0%	0%	50%	0%	0%	0%	–
CSC(=O)Oc1c(C(=O)c2ccc(S(C)(=O)=O)c(C3=NOCC3)c2C)cnn1C [compound 40]	80%	10%	100%	10%	95%	100%	95%	90%	100%	60%	90%	70%	85%	100%	90%	0%	90%	90%	0%	70%	–
COC(=O)c1c(S(C)(=O)=O)ccc(C(=O)c2cnn(C)c2OC(=O)SCc2ccccc2)c1C [compound 92]	0%	0%	80%	0%	0%	70%	60%	10%	95%	0%	80%	0%	60%	70%	50%	0%	10%	70%	0%	10%	–
CCn1ncc(C(=O)c2ccc(S(C)(=O)=O)c(C(=O)OC)c2C)c1OC(=O)SCc1ccccc1 [compound 93]	80%	30%	95%	0%	95%	100%	95%	98%	90%	0%	90%	70%	75%	100%	65%	0%	80%	80%	0%	70%	–
CCn1ncc(C(=O)c2ccc(S(C)(=O)=O)c(C(=O)OC)c2Cl)c1OC(=O)SC [compound 97]	70%	0%	100%	0%	100%	100%	100%	100%	100%	10%	70%	60%	100%	100%	100%	0%	80%	80%	10%	50%	–
CCSC(=O)Oc1c(C(=O)c2ccc(S(C)(=O)=O)c(C#N)c2C)cnn1C [compound 82]	40%	0%	30%	0%	70%	50%	60%	60%	70%	0%	10%	40%	80%	20%	20%	0%	70%	70%	0%	50%	–
CCSC(=O)Oc1c(C(=O)c2ccc(S(C)(=O)=O)c(SC)c2Cl)cnn1C [compound 212]	–	–	50%	0%	–	80%	–	–	40%	0%	0%	–	50%	0%	0%	0%	–	–	–	–	Growth inhibition rate (%) Crabgrass ([1]; 63 g/ha active ingredient): 50%; Growth inhibition rate (%) Corn (corn (Zea mays L.); 63 g/ha active ingredient): 0%; Growth inhibition rate (%) Barnyardgrass ([2]; 63 g/ha active ingredient): 100%; Growth inhibition rate (%) Greenfoxtail ([3]; 63 g/ha active ingredient): 60%; Growth inhibition rate (%) redroot pigweed ([4]; 63 g/ha active ingredient): 100%; Growth inhibition rate (%) Rice (rice (Oryza sativa L.); 63 g/ha active ingredient): 30%; Growth inhibition rate (%) Soybean ([5]; 63 g/ha active ingredient): 90%; Growth inhibition rate (%) Velvetleaf ([6]; 63 g/ha active ingredient): 60%; Growth inhibition rate (%) Wheat (wheat (Triticum spp.); 63 g/ha active ingredient): 0%; Growth inhibition rate (%) Prickly sida ([7]; 63 g/ha active ingredient): 40%
